In US20100331269A1, “TRITERPENES DERIVATIVES AND USES THEREOF AS ANTITUMOR AGENTS OR ANTI-INFLAMMATORY AGENTS” (priority 2006, published 2010):

What was measured:
WS-1 cells = experiment: Cytotoxicity, Hoechst DNA assay, WS-1; assay type: cell-based, human; conditions: ± SD
Source text: (§1) Human lung carcinoma (A-549), human colon adenocarcinoma (DLD-1), human normal fibroblasts (WS1), mice melanoma (B16-F1), Human glioma (U-251), Human hepatocellular carcinoma (HEP G2), Human prostate adenocarcinoma (PC-3), Human ovary teratocarcinoma metastatic (PA-1), Human breast adenocarcinona metastatic (MDA-MB-231), Human breast adenocarcinoma (MCF-7) and Human malignant melanoma (SK-MEL-2) cell lines were obtained from the American Type Culture Collection (ATCC). All cell lines were cultured in minimum essential medium containing Earle's salts and L-glutamine (Mediatech Cellgro, Va.), to which was added 10% fetal bovine serum (Hyclone), vitamins (1×), penicillin (100 I.U./mL) and streptomycin (100 μg/mL), essential amino acids (1×) and sodium pyruvate (1×) (Mediatech Cellgro, Va.). Cells were kept at 37° C. in a humidified environment containing 5% CO2.
(§2) The cytotoxicity of triterpenes (1-8) and corresponding glycosides (9-30) (Table 2 below) as well as of germanicane-type triterpenes and glycosides (31-44) (Table 3 below) was assessed towards human cancer (A-549, DLD-1), mouse melanoma (B16-F1) and human normal skin fibroblast (WS1) cell lines using the resazurin reduction test (RTT test) as previously described (O'Brien, J. et al., Eur. J. Biochem. 2000, 267, 5421-5426). Measurements of fluorescence were carried out after 48 continuous hours of contact between compounds and cells. Results presented in Tables 2 and 3 below express the concentration inhibiting 50% of the cell growth (IC50). Known for its activity against A-549, betulinic acid (3) was used as a positive control in this experimentation. […] The cytotoxic activity of some of these compounds was also assessed using the Hoechst DNA assay (Table 4 below).

B16-F1 cells = experiment: Cytotoxicity, Hoechst DNA assay, B16-F1; assay type: cell-based, mouse; conditions: ± SD
Source text: as §1, §2

[1] = system: DLD-1 human colorectal adenocarcinoma cells; experiment: Cytotoxicity, resazurin metabolism assay, DLD-1; assay type: cell-based; conditions: 48 h, mean ± SD
Source text: as §1
(§3) Exponentially growing cells were plated in 96-well microplates (Costar, Corning Inc.) at a density of 5×10^3 cells per well in 100 μL of culture medium and were allowed to adhere for 16 hours before treatment. Increasing concentrations of each compound in DMSO (Sigma-Aldrich) were then added (100 μL per well) and the cells were incubated for 48 h. […] Cytotoxicity was assessed using resazurin (O'Brien, J. et al., Eur. J. Biochem. 2000, 267, 5421-5426) on an automated 96-well Fluoroskan Ascent F1™ plate reader (Labsystems) using excitation and emission wavelengths of 530 nm and 590 nm, respectively. Fluorescence was proportional to the cellular metabolic activity in each well. Survival percentage was defined as the fluorescence in experimental wells compared to that in control wells after subtraction of blank values. Each experiment was carried out three times in triplicata. IC50 results were expressed as mean±standard deviation.
as §2

[2] = system: B16-F1 mouse melanoma cells; experiment: Cytotoxicity, resazurin metabolism assay, B16-F1; assay type: cell-based; conditions: 48 h, mean ± SD
Source text: as §1, §3, §2

[3] = system: WS-1 human normal skin fibroblasts; experiment: Cytotoxicity, resazurin metabolism assay, WS-1; assay type: cell-based; conditions: 48 h, mean ± SD
Source text: as §1, §3, §2

DLD-1 cells = experiment: Cytotoxicity, Hoechst DNA assay, DLD-1; assay type: cell-based, human; conditions: ± SD
Source text: as §1, §2

A-549 cells = experiment: Cytotoxicity, Hoechst DNA assay, A-549; assay type: cell-based, human; conditions: ± SD
Source text: as §1, §2

[4] = system: A-549 human lung carcinoma cells; experiment: Cytotoxicity, resazurin metabolism assay, A-549; assay type: cell-based; conditions: 48 h, mean ± SD
Source text: as §1, §3, §2

[5] = system: MDA-MB-231 human breast adenocarcinoma cells; experiment: Cytotoxicity, resazurin metabolism assay, MDA-MB-231; assay type: cell-based; conditions: mean ± SD
Source text: as §1, §3
(§4) Compounds presented in Table 5 below were also tested in the following tumour cell lines: U-251 (Human glioma), HEP G2 (Human hepatocellular carcinoma), PC-3 (Human prostate adenocarcinoma), PA-1 (Human ovary teratocarcinoma metastatic), MDA-MB-231 (Human breast adenocarcinona metastatic), MCF-7 (Human breast adenocarcinoma) and SK-MEL-2 (Human malignant melanoma).

[6] = system: PA-1 human ovary teratocarcinoma cells; experiment: Cytotoxicity, resazurin metabolism assay, PA-1; assay type: cell-based; conditions: mean ± SD
Source text: as §1, §3, §4

[7] = system: PC-3 human prostate adenocarcinoma cells; experiment: Cytotoxicity, resazurin metabolism assay, PC-3; assay type: cell-based; conditions: mean ± SD
Source text: as §1, §3, §4

[8] = system: SK-Mel-2 human melanoma cells; experiment: Cytotoxicity, resazurin metabolism assay, SK-Mel-2; assay type: cell-based; conditions: mean ± SD
Source text: as §1, §3, §4

U-251 human glioma cells = experiment: Cytotoxicity, resazurin metabolism assay, U-251; assay type: cell-based; conditions: mean ± SD
Source text: as §1, §3, §4

[9] = system: MCF-7 human breast adenocarcinoma cells; experiment: Cytotoxicity, resazurin metabolism assay, MCF-7; assay type: cell-based; conditions: mean ± SD
Source text: as §1, §3, §4

[10] = system: Hep G2 human hepatocellular carcinoma cells; experiment: Cytotoxicity, resazurin metabolism assay, Hep G2; assay type: cell-based; conditions: mean ± SD
Source text: as §1, §3, §4

Row | Compound | IC50 (WS-1 cells) [µM] | IC50 (B16-F1 cells) [µM] | IC50 [1] [µM] | IC50 [2] [µM] | IC50 [3] [µM] | IC50 (DLD-1 cells) [µM] | IC50 (A-549 cells) [µM] | IC50 [4] [µM] | IC50 [5] [µM] | IC50 [6] [µM] | IC50 [7] [µM] | IC50 [8] [µM] | IC50 (U-251 human glioma cells) [µM] | IC50 [9] [µM] | IC50 [10] [µM]
1 | C=CCOC(=O)C12CCC(C(=C)C)C1C1CCC3C4(C)CCC(O)C(C)(C)C4CCC3(C)C1(C)CC2 (centres unmarked) [Compound 8, Allyl betulinate] | > 225 | > 225 | > 225 | > 225 | > 225 | > 225 | > 225 | > 225 | – | – | – | – | – | – | –
2 | C=C(C)[C@@H]1CC[C@]2(C)CC[C@]3(C)[C@H](CC[C@@H]4[C@@]5(C)CC[C@H](O[C@@H]6O[C@H](CO)[C@@H](O)[C@H](O)[C@H]6O)C(C)(C)[C@@H]5CC[C@]43C)[C@@H]12 [Compound 9, 3-O-6-D-Glucopyranoside of lupeol] | 20 ± 2 | 18 ± 2 | 14 ± 1 | 15 ± 0.7 | 13.3 ± 0.5 | 19 ± 1 | 22 ± 2 | 14 ± 1 | 20.9 ± 0.6 | 13 ± 1 | 30 ± 2 | 15.5 ± 0.6 | 17.9 ± 0.7 | 16.4 ± 0.5 | 17.8 ± 0.2
3 | C=C(C)[C@@H]1CC[C@]2(C)CC[C@]3(C)[C@H](CC[C@@H]4[C@@]5(C)CC[C@H](O[C@@H]6O[C@@H](C)[C@H](O)[C@@H](O)[C@H]6O)C(C)(C)[C@@H]5CC[C@]43C)[C@@H]12 [Compound 10, 3-O-α-L-Rhamnopyranoside of lupeol] | > 178 | > 178 | > 178 | > 178 | > 178 | > 178 | > 178 | > 178 | – | – | – | – | – | – | –
4 | C=C(C)[C@@H]1CC[C@]2(CO)CC[C@]3(C)[C@H](CC[C@@H]4[C@@]5(C)CC[C@H](O[C@@H]6O[C@H](CO)[C@@H](O)[C@H](O)[C@H]6O)C(C)(C)[C@@H]5CC[C@]43C)[C@@H]12 [Compound 12, 3-O-β-D-Glucopyranoside of Betulin] | > 200 | > 200 | > 200 | > 200 | > 200 | > 200 | > 200 | > 200 | – | – | – | – | – | – | –
5 | C=C(C)C1CCC2(CO)CCC3(C)C(CCC4C5(C)CCC(OC6OC(C)C(O)C(O)C6O)C(C)(C)C5CCC43C)C12 [Compound 13, 3-O-α-L-Rhamnopyranoside of Betulin] | – | – | 50 ± 10 | 18 ± 1 | 33 ± 5 | – | – | 22 ± 3 | 33 ± 2 | 180 ± 30 | 61 ± 6 | 110 ± 20 | 170 ± 40 | 19 ± 4 | 11 ± 0.9
6 | C=C(C)C1CCC2(CO)CCC3(C)C(CCC4C5(C)CCC(OC6OCC(O)C(O)C6O)C(C)(C)C5CCC43C)C12 [Compound 14, 3-O-α-D-Arabinopyranoside of Betulin] | – | – | 63 ± 8 | 38 ± 3 | 59 ± 5 | – | – | 41 ± 3 | 49.2 ± 0.9 | 41 ± 5 | 65 ± 6 | 54 ± 3 | 40 ± 7 | 61 ± 7 | 38 ± 2
7 | C=C(C)[C@@H]1CC[C@]2(CO[C@@H]3O[C@H](CO)[C@@H](O)[C@H](O)[C@H]3O)CC[C@]3(C)[C@H](CC[C@@H]4[C@@]5(C)CC[C@H](O)C(C)(C)[C@@H]5CC[C@]43C)[C@@H]12 [Compound 15, 28-O-β-D-Glucopyranoside of Betulin] | > 194 | > 194 | > 248 | > 248 | > 248 | > 194 | > 194 | > 248 | – | – | – | – | – | – | –
8 | C=C(C)C1CCC2(COC3OC(C)C(O)C(O)C3O)CCC3(C)C(CCC4C5(C)CCC(O)C(C)(C)C5CCC43C)C12 [Compound 16, 28-O-α-L-Rhamnopyranoside of Betulin] | > 194 | > 194 | > 228 | > 228 | > 228 | > 194 | > 194 | > 228 | – | – | – | – | – | – | –
9 | C=C(C)[C@@H]1CC[C@]2(C(=O)OC)CC[C@]3(C)[C@H](CC[C@@H]4[C@@]5(C)CC[C@H](O[C@@H]6O[C@@H](C)[C@H](O)[C@@H](O)[C@H]6O)C(C)(C)[C@@H]5CC[C@]43C)[C@@H]12 [Compound 19, 3-O-α-L-Rhamnopyranoside of Methyl Betulinate] | 65 ± 5 | 46 ± 1 | > 183 | 55 ± 2 | 53 ± 2 | > 150 | 58 ± 2 | 59 ± 3 | – | – | – | – | – | – | –
10 | C=C(C)[C@@H]1CC[C@]2(C(=O)O)CC[C@]3(C)[C@H](CC[C@@H]4[C@@]5(C)CC[C@H](O[C@@H]6O[C@H](CO)[C@@H](O)[C@H](O)[C@H]6O)C(C)(C)[C@@H]5CC[C@]43C)[C@@H]12 [Compound 21, 3-O-β-D-Glucopyranoside of Betulinic Acid] | > 178 | 17 ± 4 | 32 ± 9 | 49 ± 13 | > 178 | 12 ± 3 | > 178 | > 178 | – | – | – | – | – | – | –
11 | C=C(C)C1CCC2(CO)CCC3(C)C(CCC4C5(C)CCC(OC6OC(CO)C(O)C(O)C6O)C(C)(C)C5CCC43C)C12 [Compound 26, 3-O-β-D-Mannopyranoside of Betulin] | – | – | 11 ± 0.5 | – | 5.3 ± 0.5 | – | – | 7.5 ± 0.1 | 9.1 ± 0.2 | 7.6 ± 0.4 | 8.6 ± 0.4 | 8.8 ± 0.4 | 8.3 ± 0.4 | 9.2 ± 0.4 | 8.3 ± 0.4
12 | C=C(C)C1CCC2(C(=O)O)CCC3(C)C(CCC4C5(C)CCC(OC6OC(CO)C(O)C(O)C6O)C(C)(C)C5CCC43C)C12 [Compound 29, 3-O-β-D-Mannopyranoside of Betulinic Acid] | – | – | 14.9 ± 0.5 | – | 16 ± 3 | – | – | 41 ± 4 | 21 ± 2 | 2.2 ± 0.2 | 27 ± 3 | 4.7 ± 0.6 | 6 ± 2 | 20 ± 2 | 26 ± 2
13 | C=C(C)[C@@H]1CC[C@]2(C(=O)O)CC[C@]3(C)[C@H](CC[C@@H]4[C@@]5(C)CC[C@H](O[C@@H]6OC[C@@H](O)[C@H](O)[C@H]6O)C(C)(C)[C@@H]5CC[C@]43C)[C@@H]12 [Compound 30, 3-O-β-D-Xylopyranoside of betulinic acid] | – | – | 19.2 ± 0.8 | – | 21 ± 1 | – | – | 14 ± 2 | 40 ± 4 | 7.9 ± 0.9 | 46 ± 8 | 36 ± 4 | 26 ± 6 | 23 ± 4 | 43 ± 3
14 | CC1(C)CCC23CCC4(C)C(CCC5C6(C)CCC(OC7OC(CO)C(O)C(O)C7O)C(C)(C)C6CCC54C)C2C1OC3 [Compound 33, 3-O-β-D-Glucopyranoside of Allobetulin] | – | – | 41.6 ± 0.9 | – | 45 ± 3 | – | – | 31 ± 2 | 41.2 ± 0.7 | 39 ± 2 | 42 ± 8 | 37 ± 2 | 46 ± 1 | 51 ± 2 | 44 ± 5
15 | CC1(C)CC[C@]23CC[C@]4(C)[C@H](CC[C@@H]5[C@@]6(C)CC[C@H](O[C@@H]7O[C@H](CO)[C@H](O)[C@H](O)[C@H]7O)C(C)(C)[C@@H]6CC[C@]54C)[C@H]2[C@H]1OC3 [Compound 36, 3-O-β-D-Galactopyranoside of Allobetulin] | – | – | 42 ± 9 | – | 30 ± 9 | – | – | 30 ± 10 | 44 ± 4 | 45 ± 4 | 45 ± 6 | 40 ± 3 | 53 ± 4 | 60 ± 20 | 41 ± 10
